Drawing on ChEMBL document CHEMBL3112480, “γ-Alkylidene-γ-lactones and isobutylpyrrol-2(5H)-ones analogues to rubrolides as inhibitors of biofilm formation by gram-positive and gram-negative bacteria” (Bioorg Med Chem Lett, 2014), this text covers Activity, inhibition and IC50 for one compound.

Values after ≈ are worked out from the molar mass of the structure shown.

The subject of the first test is Streptococcus mutans. The test is described as follows: Antibacterial activity against Streptococcus mutans ATCC 25175 assessed as effect on planktonic growth at 5.5 ug/ml after 20 hrs relative to control. It is filed as functional.
Settings: not given
For `COc1ccc(Br)cc1C1=C(Br)C(=O)N(CC(C)C)/C1=C/c1ccc(Br)cc1`, the Activity amounted to 10.1%.

For the next test, the system named is Staphylococcus epidermidis. Nature of the test: Antibacterial activity against Staphylococcus epidermidis ATCC 35547 assessed as effect on planktonic growth at 2.73 ug/ml after 20 hrs relative to control. It is filed as functional.
Settings: not given
Turning to `COc1ccc(Br)cc1C1=C(Br)C(=O)N(CC(C)C)/C1=C/c1ccc(Br)cc1`, the Activity is -5.7%.

Another test has as its system Staphylococcus epidermidis. Nature of the test: Antibacterial activity against Staphylococcus epidermidis ATCC 35547 assessed as effect on planktonic growth at 0.68 ug/ml after 20 hrs relative to control. It is filed as functional.
Settings: not given
On to `COc1ccc(Br)cc1C1=C(Br)C(=O)N(CC(C)C)/C1=C/c1ccc(Br)cc1`, for which the Activity is on record as -2.1%.

For the next test, the system named is Pseudomonas aeruginosa. Nature of the test: Antibacterial activity against Pseudomonas aeruginosa ATCC 27853 assessed as effect on planktonic growth at 0.17 ug/ml after 20 hrs relative to control.
Settings: not given
It is filed as functional.
In the case of `COc1ccc(Br)cc1C1=C(Br)C(=O)N(CC(C)C)/C1=C/c1ccc(Br)cc1`, the Activity was 0.9%.

For a further test, the system named is Staphylococcus epidermidis. Nature of the test: Antibacterial activity against Staphylococcus epidermidis ATCC 35547 assessed as effect on planktonic growth at 87.5 ug/ml after 20 hrs relative to control. It is filed as functional.
Settings: not given
Consider `COc1ccc(Br)cc1C1=C(Br)C(=O)N(CC(C)C)/C1=C/c1ccc(Br)cc1`, for which the Activity is given as 11.4%.

The next test concerns Staphylococcus aureus. Nature of the test: Antibacterial activity against Staphylococcus aureus ATCC 25923 assessed as effect on planktonic growth at 0.34 ug/ml after 20 hrs relative to control. It is filed as functional.
Settings: not given
Regarding `COc1ccc(Br)cc1C1=C(Br)C(=O)N(CC(C)C)/C1=C/c1ccc(Br)cc1`, the Activity is 6.3%.

Another test relates to Pseudomonas aeruginosa. Nature of the test: Antibacterial activity against Pseudomonas aeruginosa ATCC 27853 assessed as inhibition of biofilm formation after 20 hrs by crystal-violet staining method. It is filed as functional, organism-based.
Settings: not given
In the case of `COc1ccc(Br)cc1C1=C(Br)C(=O)N(CC(C)C)/C1=C/c1ccc(Br)cc1`, the inhibition result was “Dose-dependent effect”.

The same test, now with this note: ATCC 27853, 20 h.
In the case of `COc1ccc(Br)cc1C1=C(Br)C(=O)N(CC(C)C)/C1=C/c1ccc(Br)cc1`, the IC50 is 2.5 µg/mL (≈ 4.39 µM).

The subject of another test is Staphylococcus epidermidis. Nature of the test: Antibacterial activity against Staphylococcus epidermidis ATCC 35547 assessed as effect on planktonic growth at 21.9 ug/ml after 20 hrs relative to control. It is filed as functional.
Settings: not given
Regarding `COc1ccc(Br)cc1C1=C(Br)C(=O)N(CC(C)C)/C1=C/c1ccc(Br)cc1`, the Activity is given as -1%.

Another test deals with Pseudomonas aeruginosa. The test is described as follows: Antibacterial activity against Pseudomonas aeruginosa ATCC 27853 assessed as effect on planktonic growth at 1.37 ug/ml after 20 hrs relative to control.
Settings: not given
It is filed as functional.
As for `COc1ccc(Br)cc1C1=C(Br)C(=O)N(CC(C)C)/C1=C/c1ccc(Br)cc1`, the Activity was -19.3%.

In the next test the test system is Staphylococcus epidermidis. Nature of the test: Antibacterial activity against Staphylococcus epidermidis ATCC 35547 assessed as effect on planktonic growth at 0.34 ug/ml after 20 hrs relative to control. It is filed as functional.
Settings: not given
As to `COc1ccc(Br)cc1C1=C(Br)C(=O)N(CC(C)C)/C1=C/c1ccc(Br)cc1`, the Activity turned out to be 0.4%.

For another test, the system named is Staphylococcus epidermidis. The test is described as follows: Antibacterial activity against Staphylococcus epidermidis ATCC 35547 assessed as effect on planktonic growth at 0.17 ug/ml after 20 hrs relative to control. It is filed as functional.
Settings: not given
In the case of `COc1ccc(Br)cc1C1=C(Br)C(=O)N(CC(C)C)/C1=C/c1ccc(Br)cc1`, the Activity was -3.3%.

For a further test, the system named is Staphylococcus aureus. The test is described as follows: Antibacterial activity against Staphylococcus aureus ATCC 25923 assessed as effect on planktonic growth at 1.37 ug/ml after 20 hrs relative to control. It is filed as functional.
Settings: not given
Take `COc1ccc(Br)cc1C1=C(Br)C(=O)N(CC(C)C)/C1=C/c1ccc(Br)cc1`: the Activity was found to be 9.4%.

The test system of a further test is Staphylococcus aureus. The test is described as follows: Antibacterial activity against Staphylococcus aureus ATCC 25923 assessed as effect on planktonic growth at 0.68 ug/ml after 20 hrs relative to control. It is filed as functional.
Settings: not given
With `COc1ccc(Br)cc1C1=C(Br)C(=O)N(CC(C)C)/C1=C/c1ccc(Br)cc1`, the Activity worked out at 18.5%.

For the next test, the system named is Streptococcus mutans. The test is described as follows: Antibacterial activity against Streptococcus mutans ATCC 25175 assessed as effect on planktonic growth at 87.5 ug/ml after 20 hrs relative to control. It is filed as functional.
Settings: not given
With `COc1ccc(Br)cc1C1=C(Br)C(=O)N(CC(C)C)/C1=C/c1ccc(Br)cc1`, the Activity is given as 22.8%.

In a further test the test system is Streptococcus mutans. The test is described as follows: Antibacterial activity against Streptococcus mutans ATCC 25175 assessed as effect on planktonic growth at 21.9 ug/ml after 20 hrs relative to control. It is filed as functional.
Settings: not given
On to `COc1ccc(Br)cc1C1=C(Br)C(=O)N(CC(C)C)/C1=C/c1ccc(Br)cc1`, for which the Activity is reported as 6%.

Another test relates to Pseudomonas aeruginosa. Nature of the test: Antibacterial activity against Pseudomonas aeruginosa ATCC 27853 assessed as effect on planktonic growth at 10.9 ug/ml after 20 hrs relative to control. It is filed as functional.
Settings: not given
As for `COc1ccc(Br)cc1C1=C(Br)C(=O)N(CC(C)C)/C1=C/c1ccc(Br)cc1`, the Activity is on record as -15.5%.

Another test relates to Staphylococcus aureus. Nature of the test: Antibacterial activity against Staphylococcus aureus ATCC 25923 assessed as effect on planktonic growth at 0.17 ug/ml after 20 hrs relative to control. It is filed as functional.
Settings: not given
For `COc1ccc(Br)cc1C1=C(Br)C(=O)N(CC(C)C)/C1=C/c1ccc(Br)cc1`, the Activity stood at 2.2%.

A further test concerns Pseudomonas aeruginosa. Nature of the test: Antibacterial activity against Pseudomonas aeruginosa ATCC 27853 assessed as effect on planktonic growth at 2.73 ug/ml after 20 hrs relative to control. It is filed as functional.
Settings: not given
Take `COc1ccc(Br)cc1C1=C(Br)C(=O)N(CC(C)C)/C1=C/c1ccc(Br)cc1`: the Activity is on record as -17.1%.

Another test has as its system Streptococcus mutans. The test is described as follows: Antibacterial activity against Streptococcus mutans ATCC 25175 assessed as effect on planktonic growth at 1.37 ug/ml after 20 hrs relative to control. It is filed as functional.
Settings: not given
Consider `COc1ccc(Br)cc1C1=C(Br)C(=O)N(CC(C)C)/C1=C/c1ccc(Br)cc1`, for which the Activity is on record as -3.3%.

The next test deals with Staphylococcus epidermidis. Nature of the test: Antibacterial activity against Staphylococcus epidermidis ATCC 35547 assessed as effect on planktonic growth at 5.5 ug/ml after 20 hrs relative to control. It is filed as functional.
Settings: not given
Consider `COc1ccc(Br)cc1C1=C(Br)C(=O)N(CC(C)C)/C1=C/c1ccc(Br)cc1`, for which the Activity was 2.7%.

Another test relates to Pseudomonas aeruginosa. The test is described as follows: Antibacterial activity against Pseudomonas aeruginosa ATCC 27853 assessed as effect on planktonic growth at 21.9 ug/ml after 20 hrs relative to control. It is filed as functional.
Settings: not given
On to `COc1ccc(Br)cc1C1=C(Br)C(=O)N(CC(C)C)/C1=C/c1ccc(Br)cc1`, for which the Activity is -11.7%.

What is called IC50 is the concentration that gives 50% inhibition.
